Results published in PubChem BioAssay AID1963843 (Molecular Pharmacology Branch, DTP, NCI, 2024).

System: 616215-338-R-J1-PDC complex spheroid viability
Experiment: Anticancer human tumor 616215-338-R-J1-PDC patient-derived colon adenocarcinoma cell line growth inhibition [POLQ]
Settings: for IC50: curve of first compound; for viability, T/C: stronger effect = lower value
Method in brief: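 Patient-derived tumour cells were co-cultured with HUVEC and mesenchymal stem cells as multicellular spheroids at 37 °C. They were treated with POLQ inhibitors (novobiocin, ART-558, RP6685) alone or combined with other agents. Top concentrations were at or near clinical Cmax (otherwise 10 microM; SN-38 at 1 microM), decreasing in half-log steps.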

[1] = second compound 0.0316 µM, first compound 0.0316 µM
[2] = second compound 0.0316 µM, first compound 0.1 µM
[3] = second compound 0.0316 µM, first compound 0.316 µM
[4] = second compound 0.0316 µM, first compound 1 µM
[5] = second compound 0.0316 µM, first compound 3.16 µM
[6] = second compound 0.0316 µM, first compound 10 µM
[7] = second compound 0.1 µM, first compound 0.0316 µM
[8] = second compound 0.1 µM, first compound 0.1 µM
[9] = second compound 0.1 µM, first compound 0.316 µM
[10] = second compound 0.1 µM, first compound 1 µM
[11] = second compound 0.1 µM, first compound 3.16 µM
[12] = second compound 0.1 µM, first compound 10 µM
[13] = second compound 0.316 µM, first compound 0.0316 µM
[14] = second compound 0.316 µM, first compound 0.1 µM
[15] = second compound 0.316 µM, first compound 0.316 µM
[16] = second compound 0.316 µM, first compound 1 µM
[17] = second compound 0.316 µM, first compound 3.16 µM
[18] = second compound 0.316 µM, first compound 10 µM
[19] = second compound 1 µM, first compound 0.0316 µM
[20] = second compound 1 µM, first compound 0.1 µM
[21] = second compound 1 µM, first compound 0.316 µM
[22] = second compound 1 µM, first compound 1 µM
[23] = second compound 1 µM, first compound 3.16 µM
[24] = second compound 1 µM, first compound 10 µM
[25] = second compound 3.16 µM, first compound 0.0316 µM
[26] = second compound 3.16 µM, first compound 0.1 µM
[27] = second compound 3.16 µM, first compound 0.316 µM
[28] = second compound 3.16 µM, first compound 1 µM
[29] = second compound 3.16 µM, first compound 3.16 µM
[30] = second compound 3.16 µM, first compound 10 µM
[31] = second compound 10 µM, first compound 0.0316 µM
[32] = second compound 10 µM, first compound 0.1 µM
[33] = second compound 10 µM, first compound 0.316 µM
[34] = second compound 10 µM, first compound 1 µM
[35] = second compound 10 µM, first compound 3.16 µM
[36] = second compound 10 µM, first compound 10 µM
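Note: spheroids exposed to compounds for one week before readout.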
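Throughout, for viability, T/C: percent viability relative to DMSO vehicle wells taken as 100%.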

CC(=O)O[C@H]1C(=O)[C@@]2(C)[C@H]([C@H](OC(=O)c3ccccc3)[C@]3(O)C[C@H](OC(=O)[C@H](O)[C@@H](NC(=O)c4ccccc4)c4ccccc4)C(C)=C1C3(C)C)[C@]1(OC(C)=O)CO[C@@H]1C[C@@H]2O + Cc1cccc(N(C)C(=O)C2C(O)CCN2c2nc(C)cc(C(F)(F)F)c2C#N)c1
IC50 (second compound 0.0316 µM): < 0.00949 µM | IC50 (second compound 0.1 µM): < 0.00949 µM | IC50 (second compound 0.316 µM): < 0.00949 µM | IC50 (second compound 1 µM): < 0.00949 µM | IC50 (second compound 3.16 µM): < 0.00949 µM | IC50 (second compound 10 µM): < 0.00949 µM | viability, T/C (second compound 0.0316 µM, first compound 0.00949 µM): 34.7% | viability, T/C (second compound 0.0316 µM, first compound 0.03 µM): 20.2% | viability, T/C (second compound 0.0316 µM, first compound 0.0949 µM): 20.4% | viability, T/C (second compound 0.0316 µM, first compound 0.3 µM): 18.9% | viability, T/C (second compound 0.0316 µM, first compound 0.949 µM): 19.3% | viability, T/C (second compound 0.0316 µM, first compound 3 µM): 19.1% | viability, T/C (second compound 0.1 µM, first compound 0.00949 µM): 31.6% | viability, T/C (second compound 0.1 µM, first compound 0.03 µM): 22.5% | viability, T/C (second compound 0.1 µM, first compound 0.0949 µM): 17.3% | viability, T/C (second compound 0.1 µM, first compound 0.3 µM): 21.5% | viability, T/C (second compound 0.1 µM, first compound 0.949 µM): 17.3% | viability, T/C (second compound 0.1 µM, first compound 3 µM): 17.4% | viability, T/C (second compound 0.316 µM, first compound 0.00949 µM): 39.5% | viability, T/C (second compound 0.316 µM, first compound 0.03 µM): 23.8% | viability, T/C (second compound 0.316 µM, first compound 0.0949 µM): 22.5% | viability, T/C (second compound 0.316 µM, first compound 0.3 µM): 15.8% | viability, T/C (second compound 0.316 µM, first compound 0.949 µM): 17.7% | viability, T/C (second compound 0.316 µM, first compound 3 µM): 16.4% | viability, T/C (second compound 1 µM, first compound 0.00949 µM): 36% | viability, T/C (second compound 1 µM, first compound 0.03 µM): 27.6% | viability, T/C (second compound 1 µM, first compound 0.0949 µM): 22.1% | viability, T/C (second compound 1 µM, first compound 0.3 µM): 13.1% | viability, T/C (second compound 1 µM, first compound 0.949 µM): 19% | viability, T/C (second compound 1 µM, first compound 3 µM): 18.8% | viability, T/C (second compound 3.16 µM, first compound 0.00949 µM): 40.9% | viability, T/C (second compound 3.16 µM, first compound 0.03 µM): 21.6% | viability, T/C (second compound 3.16 µM, first compound 0.0949 µM): 23.9% | viability, T/C (second compound 3.16 µM, first compound 0.3 µM): 15.6% | viability, T/C (second compound 3.16 µM, first compound 0.949 µM): 21.7% | viability, T/C (second compound 3.16 µM, first compound 3 µM): 17.4% | viability, T/C (second compound 10 µM, first compound 0.00949 µM): 33.5% | viability, T/C (second compound 10 µM, first compound 0.03 µM): 26.9% | viability, T/C (second compound 10 µM, first compound 0.0949 µM): 21.2% | viability, T/C (second compound 10 µM, first compound 0.3 µM): 14.6% | viability, T/C (second compound 10 µM, first compound 0.949 µM): 21.6% | viability, T/C (second compound 10 µM, first compound 3 µM): 14.6%

COc1cc(C2c3cc4c(cc3C(OC3OC5COC(C)OC5C(O)C3O)C3COC(=O)C23)OCO4)cc(OC)c1O (stereo unspecified) + Cc1cccc(N(C)C(=O)C2C(O)CCN2c2nc(C)cc(C(F)(F)F)c2C#N)c1
IC50 (second compound 0.0316 µM): > 10 µM | IC50 (second compound 0.1 µM): > 10 µM | IC50 (second compound 0.316 µM): 9.66 µM | IC50 (second compound 1 µM): 9.43 µM | IC50 (second compound 3.16 µM): > 10 µM | IC50 (second compound 10 µM): 9.51 µM | viability, T/C [1]: 95.8% | viability, T/C [2]: 102% | viability, T/C [3]: 85.3% | viability, T/C [4]: 94% | viability, T/C [5]: 70.9% | viability, T/C [6]: 61.5% | viability, T/C [7]: 94.8% | viability, T/C [8]: 95.5% | viability, T/C [9]: 94.1% | viability, T/C [10]: 77.9% | viability, T/C [11]: 80.6% | viability, T/C [12]: 50.8% | viability, T/C [13]: 95.4% | viability, T/C [14]: 101% | viability, T/C [15]: 88.6% | viability, T/C [16]: 85.1% | viability, T/C [17]: 73.4% | viability, T/C [18]: 48.8% | viability, T/C [19]: 94.4% | viability, T/C [20]: 96.5% | viability, T/C [21]: 85.4% | viability, T/C [22]: 81.4% | viability, T/C [23]: 76.7% | viability, T/C [24]: 47.2% | viability, T/C [25]: 105% | viability, T/C [26]: 106% | viability, T/C [27]: 80.5% | viability, T/C [28]: 81.7% | viability, T/C [29]: 78% | viability, T/C [30]: 48.9% | viability, T/C [31]: 107% | viability, T/C [32]: 102% | viability, T/C [33]: 68.4% | viability, T/C [34]: 93.3% | viability, T/C [35]: 67.4% | viability, T/C [36]: 44.7%

O=c1[nH]cc(F)c(=O)[nH]1 + Cc1cccc(N(C)C(=O)C2C(O)CCN2c2nc(C)cc(C(F)(F)F)c2C#N)c1
IC50 (second compound 0.0316 µM): > 10 µM | IC50 (second compound 0.1 µM): > 10 µM | IC50 (second compound 0.316 µM): > 10 µM | IC50 (second compound 1 µM): > 10 µM | IC50 (second compound 3.16 µM): > 10 µM | IC50 (second compound 10 µM): > 10 µM | viability, T/C [1]: 92.1% | viability, T/C [2]: 108% | viability, T/C [3]: 69.8% | viability, T/C [4]: 68.6% | viability, T/C [5]: 61.2% | viability, T/C [6]: 56.3% | viability, T/C [7]: 101% | viability, T/C [8]: 108% | viability, T/C [9]: 68.7% | viability, T/C [10]: 61.7% | viability, T/C [11]: 60.1% | viability, T/C [12]: 63.4% | viability, T/C [13]: 102% | viability, T/C [14]: 116% | viability, T/C [15]: 75.6% | viability, T/C [16]: 57.5% | viability, T/C [17]: 56.9% | viability, T/C [18]: 66.8% | viability, T/C [19]: 106% | viability, T/C [20]: 99.7% | viability, T/C [21]: 68.6% | viability, T/C [22]: 65.1% | viability, T/C [23]: 56.2% | viability, T/C [24]: 58.2% | viability, T/C [25]: 99.9% | viability, T/C [26]: 102% | viability, T/C [27]: 70% | viability, T/C [28]: 63.6% | viability, T/C [29]: 59.9% | viability, T/C [30]: 64.2% | viability, T/C [31]: 97.6% | viability, T/C [32]: 106% | viability, T/C [33]: 70.3% | viability, T/C [34]: 54.9% | viability, T/C [35]: 54.5% | viability, T/C [36]: 59.6%
